Entries after “also recorded” stand apart in the source; their conditions may differ. Where a name gives a salt, the structure may show the parent alone. Read-outs that look alike come from different tables or passages of the source.
Experiments:
[1] = Bioavailability study in dogs (oral capsule formulations; intraduodenal non-aqueous solution); type: in vivo, male beagle dogs; settings: for bioavailability: plasma
[2] = Enterohepatic extraction ratio and theoretical maximum oral bioavailability; type: in vivo; settings: dogs
[3] = Aqueous solubility under acidic conditions; type: physicochemical; settings: water, pH<5.34
Description: The aqueous solubility of the diacid of the compound of Formula (I) is very limited under acidic conditions. The solubility is less than 0.1 ug/mL at pH<5.34.

[4] = Hygroscopicity study (moisture uptake, dynamic vapor sorption analyzer); type: physicochemical; settings: for % Moisture Uptake: percentage weight gain
Excerpt: ^a Measured on a dynamic vapor sorption analyzer as percentage weight

[5] = Accelerated stability studies; type: physicochemical; settings: stored at 50° C.

In the case of `CCCCn1ncc(/C=C(\Cc2cc3c(cc2OC)CCO3)C(=O)O)c1-c1ccc(Cl)cc1OCc1ccccc1C(=O)O` [Diacid, (E)-3-[1-n-Butyl-5-[2-(2-carboxyphenyl)methoxy-4-chlorophenyl]-1H-pyrazol-4-yl]-2-[(5-methoxy-2,3-dihydrobenzofuran-6-yl)methyl]-prop-2-enoic acid], the bioavailability ([1]; dog, po, 10 mg/kg, dogs, oral dosing of a simple capsule formulation, read-out: oral bioavailability) is reported as 3.9%, the bioavailability ([1]; dog, po, dog, oral capsule with 0.5% Tween 80 & 2 MEq NMG (also some microcrystalline cellulose, lactose, starch), read-out: Mean % Oral Bioavailability ± SD) is reported as 6.3 ± 5.3% and the bioavailability ([1]; dog, po, dog, oral capsule with 0.5% Tween 80 (also some microcrystalline cellulose, lactose, starch), read-out: Mean % Oral Bioavailability ± SD) is reported as 2.3 ± 3.7%. For the same molecule, the hepatic extraction ratio ([2]; dog, in vivo) was 0.82, the “theoretical maximum value of oral bioavailability” value ([2]; from enterohepatic extraction ratio) was 18% and the solubility [3] was under 0.1 µg/mL. The “% Moisture Uptake” value ([4]; 0% relative humidity) was 0%, the “% Moisture Uptake” value ([4]; 10% relative humidity) was 0.077% and the “% Moisture Uptake” value ([4]; 20% relative humidity) was 0.088%. For the same molecule, the “% Moisture Uptake” value ([4]; 30% relative humidity) was 0.126%, the “% Moisture Uptake” value ([4]; 40% relative humidity) was 0.184% and the “% Moisture Uptake” value ([4]; 50% relative humidity) was 0.245%. For the same molecule, the “% Moisture Uptake” value ([4]; 60% relative humidity) was 0.316%, the “% Moisture Uptake” value ([4]; 70% relative humidity) was 0.395% and the “% Moisture Uptake” value ([4]; 80% relative humidity) was 0.509%. For the same molecule, the “% Moisture Uptake” value ([4]; 90% relative humidity) was 0.518%.
With `CCCCn1ncc(/C=C(\Cc2cc3c(cc2OC)CCO3)C(=O)O)c1-c1ccc(Cl)cc1OCc1ccccc1C(=O)O` [Disodium Salt] the bioavailability ([1]; dog, dog, non-aqueous solution (99% PEG 400, 1% DMSO) dosed intraduodenally, only 2 animals, read-out: Mean % Oral Bioavailability ± SD) was 14.5%, the bioavailability ([1]; dog, po, dog, oral capsule (with microcrystalline cellulose as diluent), read-out: Mean % Oral Bioavailability ± SD) was 6.2% and the “% Moisture Uptake” value ([4]; 0% relative humidity) was 0%. For the same molecule, the “% Moisture Uptake” value ([4]; 10% relative humidity) was 1.849%, the “% Moisture Uptake” value ([4]; 20% relative humidity) was 2.838% and the “% Moisture Uptake” value ([4]; 30% relative humidity) was 3.821%. For the same molecule, the “% Moisture Uptake” value ([4]; 40% relative humidity) was 5.013%, the “% Moisture Uptake” value ([4]; 50% relative humidity) was 6.773% and the “% Moisture Uptake” value ([4]; 60% relative humidity) was 10.188%. The “% Moisture Uptake” value ([4]; 70% relative humidity) was 15.919%, the “% Moisture Uptake” value ([4]; 80% relative humidity) was 22.472% and the “% Moisture Uptake” value ([4]; 90% relative humidity) was 33.671%.
For `CCCCn1ncc(/C=C(\Cc2cc3c(cc2OC)CCO3)C(=O)O)c1-c1ccc(Cl)cc1OCc1ccccc1C(=O)O` [Monoargininyl Salt, (E)-3-[1-n-Butyl-5-[2-(2-carboxyphenyl)methoxy-4-chlorophenyl]1H-pyrazol-4-yl]-2-[(5-methoxy-2,3-dihydrobenzofuran-6-yl)methyl]-prop-2-enoic Acid, Monoargininyl Salt], the “Mean % Oral Bioavailability ± SD” value ([1]; dog, oral capsule (with microcrystalline cellulose as diluent), 10 mg/kg) was 13.8 ± 7.6%, the “bioavailability compared with other forms (in words)” value ([1]; dogs, vs disodium salt or dissolution-enhancing formulations of the diacid) was “increased bioavailability as compared to the disodium salt or dissolution-enhancing formulations of the diacid” and the “% Moisture Uptake” value ([4]; 0% relative humidity) was 0%. For the same molecule, the “% Moisture Uptake” value ([4]; 10% relative humidity, listed as Monoarginine) was 0.261%, the “% Moisture Uptake” value ([4]; 20% relative humidity, listed as Monoarginine) was 0.382% and the “% Moisture Uptake” value ([4]; 30% relative humidity, listed as Monoarginine) was 0.526%. The “% Moisture Uptake” value ([4]; 40% relative humidity, listed as Monoarginine) was 0.689%, the “% Moisture Uptake” value ([4]; 50% relative humidity, listed as Monoarginine) was 0.827% and the “% Moisture Uptake” value ([4]; 60% relative humidity, listed as Monoarginine) was 0.982%. The “% Moisture Uptake” value ([4]; 70% relative humidity, listed as Monoarginine) was 1.092%, the “% Moisture Uptake” value ([4]; 80% relative humidity, listed as Monoarginine) was 1.434% and the “% Moisture Uptake” value ([4]; 90% relative humidity, listed as Monoarginine) was 2.334%. The “hygroscopicity (in words)” value ([4]; compared with diacid and amorphous disodium salt, listed as monoarginine salt) was “minimally hygroscopic; also recorded: slightly more hygroscopic than the diacid form; also recorded: considerably less hygroscopic than the amorphous disodium salt form”, the moisture absorbed ([4]; relative humidity range of 0 to 90%) was 2.3% and the chemical stability [5] was “chemically stable for at least three weeks”.

— patent US6300359A, “(E)-3-[1-n-Butyl-5-[2-(2-carboxyphenyl)methoxy-4-chlorophenyl]-1H-pyrazol-4 -yl]-2-[(5-methoxy-2,3-dihydrobenzofuran-6-yl)methyl]-prop-2-enoic acid monoargininyl salt” (SmithKline Beecham Corporation, priority 2000, dated 2001)
